Where two headings read alike, the source gives them in different places.
Assays:
Format in all cases: cell-based, human
[1] = test system: IL-10-induced JAK1/TYK2 signal pathway; experiment: IL-10-induced JAK1/TYK2 signal pathway STAT3-Luc reporter gene assay in U2OS cells; conditions: Homo sapiens, U2OS cells, STAT3-Luc reporter, IL-10 10 ng/mL, read-out: Half inhibition dose (IC50) on IL-10-induced JAK1/TYK2 signal pathway
How it was run: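 U2OS cells co-transfected with IL-10R1-EGFP and STAT3-luciferase reporter plasmids; after 24 h, compound added (0–300 nM) for 6 h before 10 ng/mL human IL-10, then 24 h culture. Luciferase signal normalised to GFP for transfection efficiency; IC50 from inhibition rates.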

[2] = test system: EPO-induced JAK2 signal pathway; experiment: EPO-induced proliferation of UT-7 cells (JAK2 signal); conditions: Homo sapiens, UT7; UT-7 cell proliferation, EPO 10 ng/mL, 72 hours; read-out: Inhibition activity IC50 on EPO-induced JAK2 signal pathway
How it was run: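 UT-7 cells (15000/well) stimulated with 10 ng/mL human recombinant EPO plus compound at final 0, 100, 1000 or 10000 nM, 72 h at 37° C., 5% CO2. Proliferation by alamarBlue fluorescence (Ex530/Em590); inhibition normalised to no-cytokine/no-compound (0) and EPO-only (100) wells, […] derived from dose-inhibition.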

[3] = test system: IL-2-induced JAK1/JAK3 signal pathway; experiment: IL-2-induced proliferation of KHYG-1 cells (JAK1/JAK3 signal); conditions: Homo sapiens, read-out: Inhibition activity IC50 on IL-2-induced JAK1/JAK3 signal pathway
How it was run: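 KHYG-1 NK lymphoma cells were cultured with IL-2 and test compound at various doses for 72 h at 37 °C and 5% CO2, and proliferation was read with alamarBlue fluorescence. Inhibition was normalized to wells without compound or cytokine (0%) and IL-2 wells without compound (100%), and C50 was derived from the dose-inhibition data.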

[4] = KHYG-1 cell proliferation, IL-2 10 ng/mL, 72 hours

| Structure (SMILES) | IC50 ([1]; U2OS) [µM] | IC50 [1] [µM] | IC50 [2] [µM] | IC50 ([3]; KHYG-1, 72 h) [µM] | IC50 [3, 4] [µM] |
| --- | --- | --- | --- | --- | --- |
| CCONC(=O)c1cnc(Nc2cccc(F)n2)cc1Nc1ccccc1NS(=O)(=O)C1CC1 [Example 116, 4-((2-(cyclopropylsulfonamido)phenyl)amino)-N-ethoxy-6-((6-fluoropyridin-2-yl)amino)nicotinamide] | – | 0.000471 | > 10 | > 10 | – |
| Cc1cc(Nc2cc(Nc3ccc(C4CC4)cc3N(C)S(C)(=O)=O)c(C(=O)NOCC(F)(F)F)cn2)nc(C)n1 [Example 118] | 0.00128 | – | > 10 | – | > 10 |
| CN(c1cc(C2CC2)ccc1Nc1cc(Nc2cccc(F)n2)ncc1C(=O)NOCC(F)(F)F)S(C)(=O)=O [Example 119, 4-((4-cyclopropyl-2-(N-methylmethanesulfonamido)phenyl)amino)-6-((6-fluoropyridin-2-yl)amino)-N-(2,2,2-trifluoroethoxy)nicotinamide] | 0.00153 | – | > 10 | – | > 10 |
| CCONC(=O)c1cnc(Nc2cc(C)c(F)cn2)cc1Nc1ccc(C2CC2)cc1N(C)S(C)(=O)=O [Example 125, 4-((4-cyclopropyl-2-(N-methylmethanesulfonamido)phenyl)amino)-N-ethoxy-6-((5-fluoro-4-methylpyridin-2-yl)amino)nicotinamide] | 0.000946 | – | > 10 | – | > 10 |
| CCONC(=O)c1cnc(Nc2ccc(C#N)cn2)cc1Nc1ccc(C2CC2)cc1N(C)S(C)(=O)=O [Example 126, 6-((5-cyanopyridin-2-yl)amino)-4-((4-cyclopropyl-2-(N-methylmethanesulfonamido)phenyl)amino)-N-ethoxy nicotinamide] | 0.000702 | – | > 10 | – | > 10 |
| C#Cc1ccc(Nc2cc(Nc3cc(C)nc(C)n3)ncc2C(=O)NOCC)c(N(C)S(C)(=O)=O)c1 [Example 127, 6-((2,6-dimethylpyrimidin-4-yl)amino)-N-ethoxy-4-((4-ethynyl-2-(N-methylmethanesulfonamido)phenyl)amino)nicotinamide] | 0.000776 | – | > 10 | – | > 10 |
| CCONC(=O)c1cnc(Nc2ccc(F)cn2)cc1Nc1ccc(Cl)cc1N(C)S(C)(=O)=O [Example 128, 4-((4-chloro-2-(N-methylmethanesulfonamido)phenyl)amino)-N-ethoxy-6-((5-fluoropyridin-2-yl)amino)nicotinamide] | 0.000697 | – | > 10 | – | > 10 |
| CCONC(=O)c1cnc(Nc2ccc(F)cn2)cc1Nc1ccc(N2CCOCC2)cc1N(C)S(C)(=O)=O [Example 130] | 0.000802 | – | > 10 | – | > 10 |
| CCONC(=O)c1cnc(Nc2cc(C)nc(C)n2)cc1Nc1ccc(N2CCOCC2)cc1N(C)S(C)(=O)=O [Example 134, 6-((2,6-dimethylpyrimidin-4-yl)amino)-N-ethoxy-4-((2-(N-methylmethanesulfonamido)-4-morpholinophenyl)amino)nicotinamide] | 0.00277 | – | > 10 | – | > 10 |
| CCONC(=O)c1cnc(Nc2cnccn2)cc1Nc1ccc(N2CCOCC2)cc1N(C)S(C)(=O)=O [Example 136, N-ethoxy-4-((2-(N-methylmethanesulfonamido)-4-morpholinophenyl)amino)-6-(pyrazin-2-ylamino)nicotinamide] | 0.00249 | – | > 10 | – | > 10 |
| CCONC(=O)c1cnc(Nc2ccccn2)cc1Nc1ccc(C2CC2)cc1N(C)S(C)(=O)=O [Example 138, 4-((4-cyclopropyl-2-(N-methylmethanesulfonamido)phenyl)amino)-N-ethoxy-6-(pyridin-2-ylamino)nicotinamide] | 0.000601 | – | > 10 | – | > 10 |
| C#Cc1ccc(Nc2cc(Nc3ccc(OC)cn3)ncc2C(=O)NOCC)c(N(C)S(C)(=O)=O)c1 [Example 141, N-ethoxy-4-((4-ethynyl-2-(N-methylmethanesulfonamido)phenyl)amino)-6-(5-methoxypyridin-2-ylamino)nicotinamide] | 0.000489 | – | > 10 | – | > 10 |
| C#Cc1ccc(Nc2cc(Nc3ccc(C#N)cn3)ncc2C(=O)NOCC)c(N(C)S(C)(=O)=O)c1 [Example 142, 6-(5-cyanopyridin-2-ylamino)-N-ethoxy-4-((4-ethynyl-2-(N-methylmethanesulfonamido)phenyl)amino)nicotinamide] | 0.00041 | – | > 10 | – | > 10 |
| C#Cc1ccc(Nc2cc(Nc3cccc(F)n3)ncc2C(=O)NOCC)c(N(C)S(C)(=O)=O)c1 [Example 143, N-ethoxy-4-((4-ethynyl-2-(N-methylmethanesulfonamido)phenyl)amino)-6-(6-fluoropyridin-2-ylamino)nicotinamide] | 0.000496 | – | > 10 | – | > 10 |

The remaining compounds from weak to strong by IC50 ([1]; U2OS), led by results:

| IC50 ([1]; U2OS) [µM] | Structure (SMILES) | IC50 [1] [µM] | IC50 [2] [µM] | IC50 ([3]; KHYG-1, 72 h) [µM] | IC50 [3, 4] [µM] |
| --- | --- | --- | --- | --- | --- |
| 0.0014 | CCONC(=O)c1cnc(NC(=O)C2CC2)cc1Nc1ccc(C2CC2)cc1N(C)S(C)(=O)=O [Example 139, 6-(cyclopropylcarboxamido)-4-((4-cyclopropyl-2-(N-methylmethanesulfonamido)phenyl)amino)-N-ethoxy nicotinamide] | – | > 10 | – | > 10 |
| 0.00108 | CCONC(=O)c1cnc(Nc2cccc(F)n2)cc1Nc1ccc(Cl)cc1N(C)S(C)(=O)=O [Example 129, 4-((4-chloro-2-(N-methylmethanesulfonamido)phenyl)amino)-N-ethoxy-6-((6-fluoropyridin-2-yl)amino)nicotinamide] | – | > 10 | – | > 10 |
| 0.000977 | CCONC(=O)c1cnc(Nc2cc(C)nc(C)n2)cc1Nc1ccc(N2CCCCC2)cc1N(C)S(C)(=O)=O [Example 132, 6-((2,6-dimethylpyrimidin-4-yl)amino)-N-ethoxy-4-((2-(N-methylmethanesulfonamido)-4-(piperidin-1-yl)phenyl)amino)nicotinamide] | – | > 10 | – | > 10 |
| 0.000969 | C#Cc1ccc(Nc2cc(Nc3ccc(F)cn3)ncc2C(=O)NOCC)c(N(C)S(C)(=O)=O)c1 [Example 144, N-ethoxy-4-((4-ethynyl-2-(N-methylmethanesulfonamido)phenyl)amino)-6-(5-fluoropyridin-2-ylamino)nicotinamide] | – | > 10 | – | > 10 |
| 0.000618 | CCONC(=O)c1cnc(Nc2cc(C)nc(C)n2)cc1Nc1ccc(C)cc1N(C)S(C)(=O)=O [Example 133, 6-((2,6-dimethylpyrimidin-4-yl)amino)-N-ethoxy-4-((4-methyl-2-(N-methylmethanesulfonamido)phenyl)amino)nicotinamide] | – | > 10 | – | > 10 |
| 0.000572 | CCONC(=O)c1cnc(Nc2cc(C)nc(C)n2)cc1Nc1ccc(OC)cc1N(C)S(C)(=O)=O [Example 131, 6-((2,6-dimethylpyrimidin-4-yl)amino)-N-ethoxy-4-((4-methoxy-2-(N-methylmethanesulfonamido)phenyl)amino)nicotinamide] | – | > 10 | – | > 10 |
| 0.000301 | CCONC(=O)c1cnc(Nc2cnccn2)cc1Nc1ccc(C2CC2)cc1N(C)S(C)(=O)=O [Example 145, 4-((4-cyclopropyl-2-(N-methylmethanesulfonamido)phenyl)amino)-N-ethoxy-6-(pyrazin-2-ylamino)nicotinamide] | – | > 10 | – | > 10 |
